Test results: patent publication US20090163696A1, “METHOD FOR PREPARING LYSOBACTIN DERIVATIVES” (priority 2006, published 2009)
*1 amine or outer side, *2 acyl side, *3 side chain or, on linkers, in order; H or OH if unused. Where a SMILES comes first, the peptide text is derived from it. Bridges are numbered along the chain shown (N, C = ends). [ ]: non-standard residue; d: D form. ξ: configuration not given here. Phe(3R-OH) = O=C([C@@H](N[*:1])[C@H](O[*:3])c1ccccc1)[*:2]; Asn(3S-OH) = NC(=O)[C@@H](O)[C@H](N)C(=O)O; Leu(3R-OH) = CC(C)[C@@H](O)[C@H](N)C(=O)O; aThr = C[C@H](O)[C@H](N)C(=O)O; ξS = NC(CO)C(=O)O

Test system: Staphylococcus aureus 133, Entercococcus faecalis ICB27159 and Streptococcus pneumoniae G9a
Assay: Determination of the minimum inhibitory concentration (MIC), liquid dilution test
Assay type: cell-based
Details: lysobactin prepared by complete synthesis compared with fermented lysobactin
Method: The in vitro effect of the compounds of the invention can be shown in the following assay: Determination of the Minimum Inhibitory Concentration (MIC): The MIC is determined in the liquid dilution test in accordance with the NCCLS guidelines. Overnight cultures of Staphylococcus aureus 133, Entercococcus faecalis ICB27159 and Streptococcus pneumoniae G9a are incubated with the described test substances in a 1:2 dilution series. The MIC determination is carried out with a cell count of 10^5 microbes per ml in Isosensitest medium (Difco, Irvine/USA), with the exception of S. pneumoniae, which is tested in BHI broth (Difco, Irvine/USA) with 10% bovine serum at a cell count of 10^6 microbes per ml. The cultures are incubated at 37° C. for 18-24 hours, S. pneumoniae in the presence of 10% CO2. The MIC is defined as the lowest concentration of each substance at which no visible bacterial growth occurs any longer. The MIC values are reported in μg/ml.

physiological activity (MIC): No significant differences
Structure (SMILES): CC[C@H](C)[C@@H]1NC(=O)[C@@H](CCCNC(=N)N)NC(=O)[C@H](CC(C)C)NC(=O)[C@H]([C@H](O)C(C)C)NC(=O)[C@@H](NC(=O)[C@H](CC(C)C)NC(=O)[C@H](N)CC(C)C)[C@@H](c2ccccc2)OC(=O)C(CO)NC(=O)[C@H]([C@H](O)C(N)=O)NC(=O)CNC(=O)[C@H]([C@H](C)O)NC1=O (stereo partly drawn) [lysobactin, Lysobactin Bistrifluoroacetate] (H-[dL]L[Phe(3R-OH)][Leu(3R-OH)]L[dR]I[aThr]G[Asn(3S-OH)][ξS]; ester 3-C)
